Molecular target: T1, histamine H3 receptor (Rattus norvegicus, UniProt Q9QYN8)
T1 construct: from tissue; host or cells: rat striatum (Sprague-Dawley, male, 6 weeks), membrane homogenate
Experiment: Histamine H3 receptor binding assay ([3H]-Nα-methylhistamine binding to rat striatum homogenate)
Conditions: 1 μmol/L test compound; [3H]-Nα-methylhistamine 1 nmol/L; striata of Sprague-Dawley male rats, 25° C., 1 hour; read-out: Inhibition ratio of [3H]-Nα-methylhistamine binding
Method: To the striata of Sprague-Dawley male rats (6 weeks of age), a 10-fold volume of lysis buffer {50 mmol/L [[…] (Tris)]/HCl (pH 7.4), 5 mmol/L ethylenediaminetetraacetic acid (EDTA), a protease inhibitor mixture [1 mg/mL phenylmethylsulfonyl fluoride (PMSF), 1 μg/mL pepstatin A, 1 μg/mL leupeptin, 1 μg/mL chymostatin]} was added and the striata were homogenized. The resulting homogenate was centrifuged (30,000×g, 4° C., 30 min), and the obtained precipitate was resuspended in a 10-fold volume of lysis buffer, followed by centrifugation under the same condition. To the obtained precipitate, a 3-fold volume of lysis buffer was added to suspend the precipitate, and the resulting tissue homogenate was used for a test.
A test compound was dissolved in an assay buffer [50 mmol/L Tris/HCl (pH 7.4), 5 mmol/L EDTA], and [^3H]-N^α-methylhistamine (1 nmol/L) and the tissue homogenate (20 μg, in terms of protein amount) were added thereto, and then, the mixture was incubated at 25° C. for 1 hour. Then, the reaction was terminated by rapid suction filtration on a glass filter [GF/B: Whatman, previously soaked in 0.3 w/v % polyethylenimine for about 30 min]. Then, the glass filter was washed three times with 3 mL of assay buffer. This glass filter was transferred into a scintillation vial and dried at 60° C. for 30 minutes. Then, 0.5 mL of Ultimagold (Perkin Elmer) was added thereto, and the radioactivity (binding amount of [^3H]-N^α-methylhistamine) was measured using a liquid scintillation counter. The obtained value was used as a binding amount in the presence of the test compound. The same procedure as described above was carried out in the absence of the test compound, and the binding amount of [^3H]-N^α-methylhistamine obtained at this time was used as a binding amount in the absence of the test compound. Further, the binding amount of [^3H]-N^α-methylhistamine obtained in the presence of 10 μmol/L thioperamide was used as a non-specific binding amount. An inhibitory action of [^3H]-N^α-methylhistamine binding was represented by an inhibition ratio in terms of 1 μmol/L of the test compound calculated by the following Equation (1).
Inhibition ratio(%)={1−[(Binding amount in the presence of test compound)−(Non-specific binding amount)]/[(Binding amount in the absence of test compound)−(Non-specific binding amount)]}×100 (1)

T1 sequence (Q9QYN8 whole entry): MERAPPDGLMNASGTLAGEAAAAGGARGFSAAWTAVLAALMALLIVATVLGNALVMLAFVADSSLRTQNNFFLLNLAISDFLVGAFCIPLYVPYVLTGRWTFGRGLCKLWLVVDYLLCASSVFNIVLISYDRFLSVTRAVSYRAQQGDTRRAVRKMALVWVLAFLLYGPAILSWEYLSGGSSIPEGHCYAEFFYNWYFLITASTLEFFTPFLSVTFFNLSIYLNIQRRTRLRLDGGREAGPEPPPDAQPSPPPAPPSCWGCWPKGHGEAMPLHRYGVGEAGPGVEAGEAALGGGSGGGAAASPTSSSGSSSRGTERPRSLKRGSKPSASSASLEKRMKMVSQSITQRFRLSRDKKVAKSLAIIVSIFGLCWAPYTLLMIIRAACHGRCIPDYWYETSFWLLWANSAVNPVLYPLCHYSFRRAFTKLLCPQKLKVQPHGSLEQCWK

Row | SMILES | inhibition at 1 µM [%]
1 | CC1CCCN1CCCN1CCN(CCN2C[C@H](C)C[C@H](C)C2)C1=C(C#N)C#N (relative stereo) [Compound 20, {1-[2-(Cis-3,5-dimethylpiperidino)ethyl]-3-[3-(2-methylpyrrolidin-1-yl)propyl]imidazolidin-2-ylidene}malononitrile] | ≥ 80
2 | N#CC(C#N)=C(NCCCN1CCCCC1)NCCCN1CCCCC1 [Compound 2, [Bis(3-piperidinopropylamino)methylene]malononitrile] | ≥ 80
3 | N#CC(C#N)=C1N(CCN2CCCCC2)CCN1CCN1CCCCC1 [Compound 5, [1,3-Bis(2-piperidinoethyl)imidazolidin-2-ylidene]malononitrile] | ≥ 80
4 | N#CC(C#N)=C1N(CCCCN2CCCCC2)CCN1CCCN1CCCCC1 [Compound 8, [1-(4-Piperidinobutyl)-3-(3-piperidinopropyl)imidazolidin-2-ylidene]malononitrile] | ≥ 80
5 | N#CC(C#N)=C1N(CCCCN2CCCCC2)CCN1CCCCN1CCCCC1 [Compound 9, [1,3-Bis(4-piperidinobutyl)imidazolidin-2-ylidene]malononitrile] | ≥ 80
6 | CC1CC(C)CN(CCN2CCN(CCCN3CCCCC3)C2=C(C#N)C#N)C1 (stereo not drawn) [Compound 13, {1-[2-(3,5-Dimethylpiperidino)ethyl]-3-(3-piperidinopropyl)imidazolidin-2-ylidene}malononitrile] | ≥ 80
7 | CC1CC(C)CN(CCCN2CCN(CCN3CC(C)CC(C)C3)C2=C(C#N)C#N)C1 (stereo not drawn) [Compound 17, {1-[2-(3,5-Dimethylpiperidino)ethyl]-3-[3-(3,5-dimethylpiperidino)propyl]imidazolidin-2-ylidene}malononitrile] | ≥ 80
8 | C[C@@H]1C[C@H](C)CN(CCN2CCN(CCCN3CCCC3)C2=C(C#N)C#N)C1 [Compound 18, {1-[2-(Cis-3,5-dimethylpiperidino)ethyl]-3-[3-(pyrrolidin-1-yl)propyl]imidazolidin-2-ylidene}malononitrile] | ≥ 80
9 | C[C@@H]1C[C@H](C)CN(CCN2CCN(CCCN3CC=CCC3)C2=C(C#N)C#N)C1 [Compound 27, {1-[3-(1,2,3,6-Tetrahydropyridin-1-yl)propyl]-3-[2-(cis-3,5-dimethylpiperidino)ethyl]imidazolidin-2-ylidene}malononitrile] | ≥ 80
10 | CC1CCCN1CCCN1CCN(CCN2CCCCC2)C1=C(C#N)C#N (stereo not drawn) [Compound 33, {1-[3-(2-Methylpyrrolidin-1-yl)propyl]-3-(2-piperidinoethyl)imidazolidin-2-ylidene}malononitrile] | ≥ 80

Further lines, results first:

Row | inhibition at 1 µM [%] | SMILES
11 | ≥ 80 | N#CC(C#N)=C1N(CCCN2CCC(C#N)CC2)CCN1CCN1CCCCC1 [Compound 40, {1-[3-(4-Cyanopiperidino)propyl]-3-(2-piperidinoethyl)imidazolidin-2-ylidene}malononitrile]
12 | ≥ 80 | CC1CC(C)CN(CCN2CCN(CCCN3CCC(C#N)CC3)C2=C(C#N)C#N)C1 (stereo not drawn) [Compound 42, {1-[3-(4-Cyanopiperidino)propyl]-3-[2-(3,5-dimethylpiperidino)ethyl]imidazolidin-2-ylidene}malononitrile]
13 | ≥ 80 | N#CC(C#N)=C1N(CCCN2CCCCCC2)CCN1CCN1CCCCC1 [Compound 46, {1-[3-(Azepan-1-yl)propyl]-3-(2-piperidinoethyl)imidazolidin-2-ylidene}malononitrile]
14 | ≥ 80 | CCN(CC)CCCN1CCN(CCN2CCCCC2)C1=C(C#N)C#N [Compound 48, [1-(3-Diethylaminopropyl)-3-(2-piperidinoethyl)imidazolidin-2-ylidene]malononitrile]
15 | ≥ 80 | CCN(CC)CCN1CCN(CCCN2CCCCC2)C1=C(C#N)C#N [Compound 49, [1-(2-Diethylaminoethyl)-3-(3-piperidinopropyl)imidazolidin-2-ylidene]malononitrile]

Reference: patent US20090181948A1, “DIAMINE DERIVATIVE” (KYOWA HAKKO KOGYO CO., LTD., priority 2005, published 2009)
